Test results from ChEMBL document CHEMBL2331144, “Synthesis and anticancer activity of analogues of phenstatin, with a phenothiazine A-ring, as a new class of microtubule-targeting agents” (Bioorg Med Chem Lett, 2013).
pIC50: −log10 of the molar value.

How the values were obtained:
NCI-H460 = assay: Growth inhibition of human NCI-H460 cells after 48 hrs by sulforhodamine B assay; assay type: functional; settings: NCI-H460, 48 h
[1] = Inhibition of sheep brain tubulin polymerization using DAPI by fluorimetry; parameters: species or system Ovis aries
Ovis aries = species on record: Ovis aries; assay: Inhibition of sheep brain tubulin polymerization at 100 uM using DAPI by fluorimetry
MCF7 = assay: Growth inhibition of human MCF7 cells after 48 hrs by sulforhodamine B assay; assay type: functional; settings: MCF7, 48 h
SF-295 = assay: Growth inhibition of human SF295 cells after 48 hrs by sulforhodamine B assay; assay type: functional; settings: SF-295, 48 h
DU-145 = assay: Growth inhibition of human DU145 cells after 48 hrs by sulforhodamine B assay; assay type: functional; settings: DU-145, 48 h
A498 = assay: Growth inhibition of human A498 cells after 48 hrs by sulforhodamine B assay; assay type: functional; settings: A498, 48 h
OVCAR-3 = assay: Growth inhibition of human OVCAR3 cells after 48 hrs by sulforhodamine B assay; assay type: functional; settings: OVCAR-3, 48 h

GI50 (NCI-H460): 6 nM
pIC50 [1]: 5.46
inhibition (Ovis aries): 99%
GI50 (MCF7): 437 nM
GI50 (DU-145): 34 nM
GI50 (OVCAR-3): 2 nM
SMILES: COc1ccc(C(=O)c2cc(OC)c(OC)c(OC)c2)cc1O [PHENSTATIN]
GI50 (SF-295): 52 nM
GI50 (A498): 380 nM
